Reference: article PMC6344527, “Toxicity and possible mechanisms of action of honokiol from Magnolia denudata seeds against four mosquito species” (Scientific Reports, 2019)
≈ marks a conversion by molar mass, not a printed value.

Tests used:
[1] = system: midgut and anal gills of third-instar Ae. aegypti larvae; experiment: transmission electron microscopy analysis of midgut and anal gills; type: in vivo, Aedes aegypti; conditions: honokiol 6.5 mg/L or magnolol 25 mg/L (LC50), 24 h
Description: At 24 h post-treatment, the midgut and anal gills of the untreated and treated Ae. aegypti larvae were fixed in Karnovsky’s fixative (2% (v/v) glutaraldehyde and 2% (v/v) paraformaldehyde in 0.05 M sodium cacodylate buffer (pH 7.2)) at 4 °C in darkness for 2–4 h and were washed three times with the same buffer. The specimens were post-fixed with 1% (w/v) osmium tetroxide in the same buffer at 4 °C for 2 h and washed with DW three times. The post-fixed specimens were then dehydrated through a graded series of ethanol with increasing concentrations up to 100% for 15 min. The specimens were further treated with propylene oxide twice each for 15 min as a transitional fluid and embedded in Spurr’s resin[77]. Ultrathin sections (approximately 50 nm thickness) were cut with a UC6 ultramicrotome (Leica Microsystems, Wetzlar, Germany) and stained in 2% aqueous uranyl acetate for 7 min at room temperature as well as with Reynolds lead citrate[78] for 7 min. The sections were mounted on copper grids, and micrographs were obtained from a CM120 transmission electron microscope (Philips Electronics, Amsterdam, Netherlands) at 80 kV. Images were captured using a MegaView III digital camera (Olympus-SIS, Lakewood, CO, USA). Observations were taken of 12 larvae via TEM.

[2] = system: third-instar Ae. aegypti larvae; experiment: light microscopy analysis of treated larvae; type: in vivo, Aedes aegypti; conditions: honokiol 6.5 mg/L or magnolol 25 mg/L (LC50), 24 h
Description: At 24 h post-treatment, the untreated and treated larvae were placed on a microscope slide at room temperature for light microscopy. Morphological observations were made with an EZ4 HD stereo microscope (35×) equipped with an Integrated 3.0 Mega-Pixel CMOS camera (Leica Microsystems, Heerbrugg, Switzerland). All experiments were performed in duplicate, with 20 mosquito larvae used in each replicate. More than 10 live larvae from the control and treated groups were randomly collected and used for analysis.

[3] = system: third-instar larvae of insecticide-resistant Anopheles sinensis; experiment: contact mortality bioassay, 24 h exposure; type: in vivo; conditions: Table 5, larvae resistant to deltamethrin and temephos, 24 h exposure
[4] = system: third-instar larvae of insecticide-susceptible Aedes albopictus; experiment: contact mortality bioassay, 24 h exposure; type: in vivo
AaV-type H^+-ATPase mRNA = experiment: real-time qRT-PCR of target gene expression; type: in vivo, Aedes aegypti; conditions: fold higher than the control group; anal gills; honokiol 6.5 mg/L or magnolol 25 mg/L, 24 h
Description: (§1) Real-time qRT-PCR with SYBR Green dye was performed to determine whether honokiol and magnolol treatment affected the expression levels of three target genes, AaAQP4, AaV-type H^+-ATPase and AeCS1, in Ae. aegypti. […] Total RNA was extracted from the anal gills (for AaAQP4 and AaV-type H^+-ATPase) and midgut (for AeCS1) of 50 larvae using an RNeasy Mini Kit (Qiagen, Valencia, CA, USA) according to the manufacturer’s instructions. Residual genomic DNA was removed using RQ1 RNase-Free DNase (Promega, Fitchburg, WI, USA), and 1 μg of total RNA from each sample was used for complementary DNA (cDNA) synthesis with an oligo(dT) primer (Invitrogen, Grand Island, NY, USA) according to the protocol of the SuperScript III Reverse Transcriptase Kit. Real-time qRT-PCR was performed in 96-well plates using the StepOne Plus Real-Time PCR System (Applied Biosystems, Foster, CA, USA). Each reaction mixture consisted of 10 μL of the SYBR Green PCR Master Mix Kit (Applied Biosystems, Warrington, Cheshire, UK), 2 μL of the forward and reverse primers (10 pmol each), 1 μL of cDNA (25 ng) and diethylpyrocarbonate-treated water for a final volume of 20 μL. The oligonucleotide PCR primer pairs are listed in Table 9 and were purchased from Cosmo Genetech (Seoul). The cycling program included an initial hold at 95 °C for 5 min, followed by 35 cycles at 95 °C for 30 s, at 58 °C for 30 s, at 72 °C for 1 min, and an extension at 72 °C for 5 min using an Applied Bioscience Thermal Cycler. The mRNA expression levels of the target genes were normalized to the mRNA expression level of the housekeeping gene Aarps7 and analyzed by the 2^−ΔΔCT method using the Applied Biosystems StepOne Software v2.1 and DataAssist Software. The results are expressed as the means ± SEs of duplicate samples from three independent experiments.

AaAQP4 mRNA = experiment: real-time qRT-PCR of target gene expression; type: in vivo, Aedes aegypti; conditions: fold higher than the control group; anal gills; honokiol 6.5 mg/L or magnolol 25 mg/L, 24 h
Description: as §1

AeCS1 mRNA = experiment: real-time qRT-PCR of target gene expression; type: in vivo, Aedes aegypti; conditions: compared to control larvae; midgut; honokiol 6.5 mg/L or magnolol 25 mg/L, 24 h
Description: as §1

[5] = system: larvae of four mosquito species (Cx. pipiens pallens, Ae. aegypti, Ae. albopictus, and An. sinensis); experiment: contact mortality bioassay, range over four mosquito species; type: in vivo; conditions: 24 h
Description: A contact mortality bioassay[25] was used to evaluate the toxicity of all compounds against third-instar larvae of the four mosquito species. Each test compound in methanol was suspended in DW with Triton X-100 (20 µL/L). Groups of 20 mosquito larvae were separately placed into paper cups (270 mL) containing each compound solution (250 mL). […] Negative controls consisted of a methanol–Triton X-100 solution in DW.
Treated and control (methanol–Triton X-100 solution only) larvae were maintained under the same conditions as those used for colony maintenance without providing food. Larval mortalities were determined 24 h post-treatment. […] All treatments were performed three times using 20 larvae per replicate.
The concentration of the test compounds required to produce 50% AChE inhibitory activity (IC50) was determined using the SAS 9.13 program (Cary: SAS Institute; 2014). Concentration-mortality data were subjected to probit analysis using the SAS 9.13 program. […] Statistical analyses were performed using the SAS 9.13 program. Multiple linear regression and correlation analysis were performed using the SPSS 24 program (Armonk: IBM Corp.; 2016).

[6] = set-up: method as in PMID 20877235; conditions: cited from earlier work

Compound	histopathological effects on anal gills (TEM) [1]	histopathological effects on midgut (TEM) [1]	anal gill region (light microscopy) [2]	morphology of the whole body (light microscopy) [2]	LC50 ([3]; Anopheles sinensis, read-out: LC50 (mg/L) (95% CI))	LC90 (mg/L) (95% CI) [3]	Slope ± SE ([3]; probit slope)	LC50 ([4]; Aedes albopictus, Table 4, 24 h exposure, read-out: LC50 (mg/L) (95% CI))	LC90 (mg/L) (95% CI) ([4]; Table 4, 24 h exposure)	times less toxic than temephos ([4]; from 24 h LC50 values) [times]	Slope ± SE ([4]; probit slope, Table 4, 24 h exposure)	AaV-type H^+-ATPase mRNA expression levels (AaV-type H^+-ATPase mRNA)	AaAQP4 mRNA expression levels (AaAQP4 mRNA)	AeCS1 mRNA levels (AeCS1 mRNA)	LC50 [5] [µg/mL]	toxicity in animal models [6]
C=CCc1ccc(O)c(-c2ccc(O)c(CC=C)c2)c1 [Honokiol, 2-(4-hydroxy-3-prop-2-enyl-phenyl)-4-prop-2-enyl-phenol]	cytoplasmic disruption with damaged anal gill cells	devastated cellular material and extruded masses in the cytoplasm	the anal gill from one side was swollen and reduced from its normal length, and the other one was completely damaged	severely damaged, with an indistinct appearance of the thorax, midgut, and abdominal regions	7.37 (≈ 27.7 µM)	31.45 (22.90–56.82) mg/L	2.0 ± 0.35	6.13 (≈ 23 µM)	16.52 (13.74–21.90) mg/L	464	2.9 ± 0.52	approximately 16 fold	approximately 18 fold	82%	6.13 to 7.37 (≈ 23 to 27.7 µM)	no toxicity or serious adverse effects
C=CCc1ccc(O)c(-c2cc(CC=C)ccc2O)c1 [Magnolol, magnolol]	damaged outer membranes of thick cuticles, which led to internal cytoplasmic destruction	complete disappearance of nuclei as well as cytoplasmic contents	completely damaged outer cuticle membranes with undistinguishable anal gills with no internal body fluid	shrunken body with no distinct abdominal segments								~14 fold	did not affect	up to 503%		
